Source: PubChem BioAssay AID248 (DTP/NCI, 2004)
Where “and” joins values, the source holds several entries; their conditions need not be identical. Equal entries are not always repeated. Toxic doses and inconclusive results are not listed. Cut-off read from the data, not from the text of the source: active = T/C of 150% or more; inactive = T/C below 125%.

Tested on: L1210 leukemia ip in BDF1 mice, survival T/C
Test: NCI In Vivo Anticancer Drug Screen. Data for tumor model L1210 Leukemia (intraperitoneal) in B6D2F1 (BDF1) mice
Details: endpoint: mean survival time, higher = longer survival
In short: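 Tumor was transplanted into mice, which were then dosed with test compound or vehicle alone. Survival was recorded for each group, and the treated figure was expressed relative to the control figure.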

[1] = dose: 100.0 mg/kg/injection, schedule: Q01DX001 (ip), vehicle: carboxymethylcellulose (CMC)
[2] = dose: 200.0 mg/kg/injection, schedule: Q01DX001 (ip), vehicle: carboxymethylcellulose (CMC)
[3] = dose: 400.0 mg/kg/injection, schedule: Q01DX001 (ip), vehicle: carboxymethylcellulose (CMC)
[4] = dose: 100.0 mg/kg/injection, schedule: Q01DX009 (ip), vehicle: saline
[5] = dose: 100.0 mg/kg/injection, schedule: Q04DX003 (ip), vehicle: saline
[6] = dose: 200.0 mg/kg/injection, schedule: Q04DX003 (ip), vehicle: saline
[7] = dose: 100.0 mg/kg/injection, schedule: Q01DX009 (ip), vehicle: Klucel (hydroxypropylcellulose) (HPC)
[8] = dose: 100.0 mg/kg/injection, schedule: Q04DX003 (ip), vehicle: Klucel (hydroxypropylcellulose) (HPC)
[9] = dose: 200.0 mg/kg/injection, schedule: Q04DX003 (ip), vehicle: Klucel (hydroxypropylcellulose) (HPC)
[10] = dose: 400.0 mg/kg/injection, schedule: Q04DX003 (ip), vehicle: Klucel (hydroxypropylcellulose) (HPC)
[11] = dose: 50.0 mg/kg/injection, schedule: Q04DX003 (ip), vehicle: Klucel (hydroxypropylcellulose) (HPC)
[12] = dose: 100.0 mg/kg/injection, schedule: Q01DX001 (ip), vehicle: saline with Tween-80
[13] = dose: 200.0 mg/kg/injection, schedule: Q01DX001 (ip), vehicle: saline with Tween-80
[14] = dose: 25.0 mg/kg/injection, schedule: Q01DX001 (ip), vehicle: Klucel (hydroxypropylcellulose) (HPC)
[15] = dose: 50.0 mg/kg/injection, schedule: Q01DX001 (ip), vehicle: Klucel (hydroxypropylcellulose) (HPC)
[16] = dose: 25.0 mg/kg/injection, schedule: Q04DX003 (ip), vehicle: Klucel (hydroxypropylcellulose) (HPC)
[17] = dose: 100.0 mg/kg/injection, schedule: Q01DX001 (ip), vehicle: Klucel (hydroxypropylcellulose) (HPC)
[18] = dose: 50.0 mg/kg/injection, schedule: Q01DX001 (ip), vehicle: saline with Tween-80
[19] = dose: 200.0 mg/kg/injection, schedule: Q01DX001 (ip), vehicle: Klucel (hydroxypropylcellulose) (HPC)
[20] = dose: 50.0 mg/kg/injection, schedule: Q01DX001 (ip), vehicle: carboxymethylcellulose (CMC)

Measured: T/C

Cc1cc2c(c(O)c1CN1CCOCC1)C1=C(CCCC1)C(C)(C)O2
inactive: [1] 107 % of control | [2] 91 % of control | [3] 86 % of control

CCOC(=O)c1ccc(NC(=O)Nc2cc(Cl)ccc2OC)cc1
inactive: [4] 106 % of control | [5] 109 % of control | dose: 200.0 mg/kg/injection, schedule: Q01DX009 (ip), vehicle: saline 92 % of control | [6] 97 % of control | dose: 400.0 mg/kg/injection, schedule: Q01DX009 (ip), vehicle: saline 92 % of control | dose: 400.0 mg/kg/injection, schedule: Q04DX003 (ip), vehicle: saline 92 % of control

COc1ccc(NC(=O)NCc2ccccc2Cl)c(OC)c1
inactive: [7] 102 % of control | dose: 200.0 mg/kg/injection, schedule: Q01DX009 (ip), vehicle: Klucel (hydroxypropylcellulose) (HPC) 96 % of control | dose: 400.0 mg/kg/injection, schedule: Q01DX009 (ip), vehicle: Klucel (hydroxypropylcellulose) (HPC) 98 % of control

Cn1c(O)c(N=NC(=O)Cc2c[nH]c3ccccc23)c2ccccc21
inactive: dose: 100.0 mg/kg/injection, schedule: Q01DX001 (ip), vehicle: other 101 % of control | dose: 200.0 mg/kg/injection, schedule: Q01DX001 (ip), vehicle: other 95 % of control | dose: 400.0 mg/kg/injection, schedule: Q01DX001 (ip), vehicle: other 95 % of control

Cc1ccc(C(=O)CC(=O)Nc2cc([N+](=O)[O-])ccc2OCCOc2ccc(C(C)(C)CC(C)(C)C)cc2)cc1
inactive: dose: 100.0 mg/kg/injection, schedule: Q01DX009 (ip), vehicle: saline sonified 100 % of control | [8] 112 % of control | dose: 200.0 mg/kg/injection, schedule: Q01DX009 (ip), vehicle: saline sonified 97 % of control | [9] 89 % of control | dose: 400.0 mg/kg/injection, schedule: Q01DX009 (ip), vehicle: saline sonified 87 % of control | [10] 94 % of control

O=C(CC(=O)NO)NO
inactive: dose: 100.0 mg/kg/injection, schedule: Q04DX002 (ip), vehicle: saline with Tween-80 103 % of control | dose: 100.0 mg/kg/injection, schedule: Q04DX002 (ip), vehicle: saline 97 % of control | dose: 200.0 mg/kg/injection, schedule: Q04DX002 (ip), vehicle: saline with Tween-80 97 % of control | dose: 200.0 mg/kg/injection, schedule: Q04DX002 (ip), vehicle: saline 100 % of control | dose: 400.0 mg/kg/injection, schedule: Q04DX002 (ip), vehicle: saline with Tween-80 97 % of control | dose: 400.0 mg/kg/injection, schedule: Q04DX002 (ip), vehicle: saline 100 % of control

O=S1(=O)N=C(Cl)c2ccccc21
inactive: [11] 105 % of control | [8] 108 % of control | [9] 97 % of control

O=C(O)Cc1ccc(Cl)cc1
inactive: dose: 75.0 mg/kg/injection, schedule: Q04DX003 (ip), vehicle: saline with Tween-80 93 % of control | [12] 98 % of control | dose: 150.0 mg/kg/injection, schedule: Q04DX003 (ip), vehicle: saline with Tween-80 96 % of control | [13] 95 % of control | dose: 300.0 mg/kg/injection, schedule: Q04DX003 (ip), vehicle: saline with Tween-80 87 % of control | dose: 400.0 mg/kg/injection, schedule: Q01DX001 (ip), vehicle: saline with Tween-80 91 % of control

CC(=O)NCC[N+](C)(C)C
inactive: dose: 25.0 mg/kg/injection, schedule: Q01DX009 (ip), vehicle: saline 100 % of control | dose: 25.0 mg/kg/injection, schedule: Q04DX003 (ip), vehicle: saline 97 % of control | dose: 50.0 mg/kg/injection, schedule: Q01DX009 (ip), vehicle: saline 100 % of control | dose: 50.0 mg/kg/injection, schedule: Q04DX003 (ip), vehicle: saline 95 % of control | [4] 105 % of control | [5] 95 % of control

Cc1c2cccc(Sc3ccc(F)cc3)c2c2c3c(cccc13)[S+](c1ccc(F)cc1)C2 (configuration not stated)
inactive: dose: 12.5 mg/kg/injection, schedule: Q01DX001 (ip), vehicle: Klucel (hydroxypropylcellulose) (HPC) 100 % of control | [14] 94 % of control | [15] 90 % of control

Cc1ccc2nsnc2c1[N+](=O)[O-]
inactive: dose: 100.0 mg/kg/injection, schedule: Q04DX002 (ip), vehicle: Klucel (hydroxypropylcellulose) (HPC) 107 % of control | dose: 200.0 mg/kg/injection, schedule: Q04DX002 (ip), vehicle: Klucel (hydroxypropylcellulose) (HPC) 118 % of control | dose: 400.0 mg/kg/injection, schedule: Q04DX002 (ip), vehicle: Klucel (hydroxypropylcellulose) (HPC) 102 % of control

O=C(N/N=C/c1ccc(Cl)c(Cl)c1)c1cccc2ccccc12
inactive: dose: 100.0 mg/kg/injection, schedule: Q01DX001 (ip), vehicle: saline 87 % of control | dose: 400.0 mg/kg/injection, schedule: Q01DX001 (ip), vehicle: saline 90 % of control

COC1=NS(=O)(=O)C2CCCCCCC2O1 (configuration not stated)
inactive: [14] 102 % of control | [16] 92 % of control | [15] 94 % of control | [11] 95 % of control | [17] 94 % of control | [8] 95 % of control

CNC(=O)Oc1cccc(NC(=O)OCC(C)(C)C)c1
inactive: dose: 100.0 mg/kg/injection, schedule: Q04DX003 (ip), vehicle: saline with Tween-80 96 % of control | dose: 200.0 mg/kg/injection, schedule: Q04DX003 (ip), vehicle: saline with Tween-80 102 % of control | dose: 400.0 mg/kg/injection, schedule: Q04DX003 (ip), vehicle: saline with Tween-80 97 % of control

O=C/C(Br)=C\c1ccccc1
inactive: dose: 25.0 mg/kg/injection, schedule: Q01DX009 (ip), vehicle: Klucel (hydroxypropylcellulose) (HPC) 95 % of control | [16] 100 % of control | dose: 50.0 mg/kg/injection, schedule: Q01DX009 (ip), vehicle: Klucel (hydroxypropylcellulose) (HPC) 90 % of control | [11] 100 % of control | [7] 105 % of control | [8] 93 % of control and 105 % of control

O=C(Nc1cc([N+](=O)[O-])ccc1F)N(Cc1ccccc1)c1ccccc1
inactive: [8] 97 % of control | [9] 92 % of control | [10] 87 % of control

Nc1nc(N)c2[nH]c(CCNc3ccc(C(=O)O)cc3)nc2n1
inactive: dose: 6.25 mg/kg/injection, schedule: Q01DX001 (ip), vehicle: saline with Tween-80 96 % of control | dose: 12.5 mg/kg/injection, schedule: Q01DX001 (ip), vehicle: saline with Tween-80 92 % of control | dose: 25.0 mg/kg/injection, schedule: Q01DX001 (ip), vehicle: saline with Tween-80 94 % of control and 101 % of control | [18] 98 % of control | [12] 102 % of control

CCCN(CCC)CC(C)O (configuration not stated)
inactive: [5] 93 % of control | [6] 97 % of control

Cc1ccc(NNS(=O)(=O)c2cccc([N+](=O)[O-])c2)c(Br)c1
inactive: [17] 96 % of control | [8] 102 % of control | [19] 94 % of control | [9] 96 % of control | dose: 400.0 mg/kg/injection, schedule: Q01DX001 (ip), vehicle: Klucel (hydroxypropylcellulose) (HPC) 100 % of control | [10] 96 % of control

CCOC(=O)c1ccc(N)cc1
inactive: dose: 37.5 mg/kg/injection, schedule: Q01DX009 (ip), vehicle: saline with Tween-80 107 % of control | [18] 97 % of control | dose: 75.0 mg/kg/injection, schedule: Q01DX009 (ip), vehicle: saline with Tween-80 107 % of control | [12] 105 % of control | dose: 150.0 mg/kg/injection, schedule: Q01DX009 (ip), vehicle: saline with Tween-80 91 % of control | [13] 94 % of control

O=C(Nc1ccc(F)cc1)Nc1cccc(Cl)c1
inactive: [20] 101 % of control | [1] 101 % of control | [2] 93 % of control | [3] 106 % of control

CC1(C)N=C(N)N=C(N)N1c1cccc(OCCCOc2ccccc2)c1
inactive: [19] 102 % of control

Nc1ccc2cc(O)ccc2c1
inactive: dose: 50.0 mg/kg/injection, schedule: Q01DX009 (ip), vehicle: saline with Tween-80 94 % of control

COc1cccc(C2=CCCCC2)c1
inactive: [20] 96 % of control | [1] 93 % of control | [2] 96 % of control | [3] 98 % of control
